Reference: patent publication US20130136714A1, “FUNCTIONALIZED POLYMER NANOPARTICLES AND THE PHARMACEUTICAL USE THEREOF” (KAOHSIUNG MEDICAL UNIVERSITY, priority 2011, published 2013)
In brackets after ≈: the same amount, converted by molar mass.

Experiments:
[1] = drug release of EPI micelles by dialysis in PBS buffer; assay type: physicochemical; conditions: pH = 7.4, 6.4 and 5.6
Description: […] The outside PBS buffer is collected at different time points and then the fresh 30 mL PBS buffer is replaced. The drug concentration is measured and calculated based on a calibration curve generated in PBS buffer with the same pH value.

KB cells = experiment: cytotoxic test (IC50) for the EPI-loaded micelles (MTT); assay type: cell-based; conditions: Homo sapiens
Description: The results of the cytotoxic test for the drug-loaded micelle are presented as the half maximal inhibitory concentration, i.e. IC50, which is used to examine the biological or biochemical inhibitory effect of a compound. Thus, the IC50 represents the concentration of the drug-loaded micelle required to inhibit the growth of a half of the cancer cells.
5×10^3 cells/well KB cells are incubated in 100 μL of RPMI 1640 medium, and transferred into the 96-well plate for incubating 24 hrs.
Epirubicin.HCl and drug-loaded micelle is prepared at 20 μg/mL, in RPMI 1640 medium. After a serial of dilution, 100 μL/well of each concentration (20, 10, 5, 2.5, 1.25, 1 and 0.5 μg/mL) is added into the cultured plate for 24 hrs incubation.
After 24 hrs incubation, the medium containing the drug and the micelle is removed, and the plate is washed with 100 μL/well PBS buffer at pH=7.4 and further incubated in 100 μL/well fresh medium for 24 and 48 hrs.
The plate is added with 50 μL/well (2 mg/mL) MTT and placed in the incubator for 3 hrs. […] Then, the cell viability is calculated using the ELISA reader.

KB cell line = experiment: intracellular delivery by confocal laser scanning microscope; assay type: cell-based, human; conditions: 0.625 μg/mL, cells incubated for 1 h
Description: Human oral cancer cell line (KB cell line) is used to investigate the cell viability of the carrier and the drug-loaded micelle, and the expression of the drug-loaded micelle through the endocytosis is observed using a confocal laser scanning microscope (CLSM). The 4′,6-diamidino-2-phenylindole (DAPI) and the lysosomal probe (Lyso-Traker) are used for cell core staining and the lysosome staining, respectively. The drug at the concentration of 0.625 μg/mL is added according to the cell viability for the drug-loaded micelle. The KB cell line is cultured for 0.5, 1, 3, and 24 hrs, in which the blue parts are shown by the DAPI staining at the cell core; the red is the fluorescence of the EPI; the green is the fluorescence of the Lyso-Traker, and the purple is the overlap of EPI and DAPI and the yellow is the overlap of Lyso-Traker and EPI. The amounts of EPI entering the nuclei and the lysosomes (the purple and the yellow images) increase with the increase in the incubation time.
Intracellular delivery is observed using the confocal microscope. 18 mm cover slip is immersed in 0.1N HCl solution for one day and washed to remove the impurities on the slide. After being rinsed by the ddH2O, the slide is wiped and then immersed in 75% alcohol. […]

[2] = biological target: folic acid receptors (FAR); conditions: read-out: dissociation constant (kd); cited from earlier work

| drug release rate (in words) [1] | SMILES | IC50 (KB cells; incubating time 24 hr) [µg/mL] | IC50 (KB cells; incubating time 48 hr) [µg/mL] | intracellular location of EPI fluorescence (KB cell line) | Kd [2] [nM] |
| --- | --- | --- | --- | --- | --- |
| quickly released in a short time | COc1cccc2c1C(=O)c1c(O)c3c(c(O)c1C2=O)C[C@@](O)(C(=O)CO)C[C@@H]3O[C@H]1C[C@H](N)[C@@H](O)[C@H](C)O1 [EPI, Epirubicin] | 0.35 (≈ 0.644 µM) | 0.2 (≈ 0.368 µM) | observed in the cell nuclei rather than in cytoplasm |  |
|  | Nc1nc2ncc(CNc3ccc(C(=O)N[C@@H](CCC(=O)O)C(=O)O)cc3)nc2c(=O)[nH]1 [folic acid] |  |  |  | 0.1 |
